Measurements published in patent publication US4500707A, “Nucleosides useful in the preparation of polynucleotides” (University Patents, Inc., priority 1982, dated 1985).
Several values for one entry are separate records, joined by “and”; a condition that tells them apart may be missing. Equal entries are not always repeated. Each block holds one compound with its values, some of them ahead of it.

What was measured:
Type in all cases: physicochemical
[1] = Protic acid hydrolysis rates of triarylmethyl groups attached to the 5'-hydroxyl of deoxynucleosides (Table VIII); details: 2% toluenesulfonic acid in chloroform:methanol (7:3)
Protocol: The 5'-triarylmethyldeoxynucleosides were treated with protic and Lewis acids using carefully controlled conditions. The results of these studies are also recorded in Tables VII and VIII. […] The rates are more variable with protic acids.
^1 Reaction conditions were 2% toluenesulfonic acid in
chloroform:methanol (7:3). Aliquots were removed from the reaction
solution, quenched with ammonium acetate and analyzed visually after tlc
and exposure to HCl vapors. Time points were taken at 15, 30, 45, 60, 90,

[2] = Rate of detritylation and degradation of 5'-trityldeoxynucleosides using ZnBr2 at room temperature (Table III); details: for Detritylation time: 100% detritylation; for Detritylation %: <1 min
Description: (§1) The procedure merely requires contacting the reactants preferably in a reaction solvent and detritylation occurs within short reaction times. The Lewis acid is normally suspended in the reaction solvent and the solvent is usually water-free to prevent reaction with the Lewis acid to form protic acids. In present experience, nitromethane is the preferred solvent although a variety of other solvents can be used, e.g. dioxane and tetrahydrofuran and mixtures of such solvents with each other and other solvents such as acetone, methylene chloride, and the like.
The results obtained with various tritylthymidines at room temperature with zinc bromide is give in Table III.
The Rate of Detritylation and Degradation of 5'-
Trityldeoxynucleosides Using ZnBr2 at Room

[3] = Rate of detritylation of various tritylthymidines using saturated ZnBr2 in nitromethane at 0° C. (Table IV); details: for % Detritylation: at the time of the same line (1, 10 or 30 min); for Detritylation time: time for the % detritylation of the same line
Description: as §1
and at 0° C. in Table IV.
The Rate of Detritylation of Various Tritylthymidines
Using Saturated ZnBr2 in Nitromethane at 0° C.

[4] = Spectral characteristics of selected triarylmethyl alcohols (Table IX); details: saturated ZnBr2 nitromethane solution; for Extinction Coefficient: at the λ maximum of the same line
Protocol: of selected triarylmethyl alcohols.
^2 All spectra were taken in a saturated ZnBr2 nitromethane
solution. All spectra were recorded on a Carey model 21, scanning from 35

[5] = Rate of detritylation and depurination using various solutions (Table II); details: for Detritylation time: 100% detritylation
Description: A particularly preferred embodiment of the present invention is the detritylation of the 5'-O trityl nucleosides, deoxynucleotides, oligonucleotides, oligodeoxynucleotides, polynucleotides and polydeoxynucleotides using a Lewis acid, particularly zinc bromide, although other Lewis acids can also be employed, e.g. titanium tetrachloride. […] The process is also specific for 5'-O-trityl and thus provides a very practical procedure to permit production of 3'-O-trityl blocked nucleosides by reaction with the 3'-O and 5'-O ditritylated compound.
as §1
The Rate of Detritylation and Depurination of 5'-
Dimethoxytrityl-N--benzoyldeoxyadenosine Using
*All depurination results summarized in this communication were obtained
by analyzing reaction mixtures using reverse phase high pressure liquid
chromatography. Estimates of detritylation times were by thin layer
**A nitromethane solution saturated with ZnBr2 is approximately 0.1

Compound: COc1ccc(C(OC[C@H]2O[C@@H](n3cc(C)c(=O)[nH]c3=O)C[C@@H]2O)(c2ccccc2)c2ccc(OC)cc2)cc1 [5'-Dimethoxytritylthymidine]
- Time to Complete Hydrolysis [1]: 30 s
- Degradation time [2]: 24 h
- Detritylation time [2]: < 1 min
- Detritylation % [2]: 100%
- % Detritylation [3]: 50%
- Detritylation time [3]: 1 min

Compound: COc1ccc(C(OC[C@H]2O[C@@H](n3cnc4c(=O)[nH]c(NC(=O)C(C)C)nc43)C[C@@H]2O)(c2ccccc2)c2ccc(OC)cc2)cc1 [5'-O-dimethoxytrityl-N-isobutyryldeoxyguanosine]
- Time to Complete Hydrolysis [1]: 30 s
- Degradation time [2]: 50 h
- Detritylation time [2]: < 1 min
- Detritylation % [2]: 100%

Compound: COc1ccc(C(O)(c2ccccc2)c2cccc3ccccc23)cc1 (stereo not shown) [R1 = a; R2 = c; R3 = n]
- λ Maximum(s) [4]: 545 nanometers and 455 nanometers
- Extinction Coefficient [4]: 25000 Molar^-1 cm^-1 and 28000 Molar^-1 cm^-1

Compound: COc1ccccc1C(O)(c1ccccc1OC)c1cccc2ccccc12 [R1 = R2 = b; R3 = n]
- λ Maximum(s) [4]: 586 nanometers
- Extinction Coefficient [4]: 15500 Molar^-1 cm^-1

Compound: COc1ccc(C(OC[C@H]2O[C@@H](n3cnc4c(NC(=O)c5ccccc5)ncnc43)C[C@@H]2O)(c2ccccc2)c2ccc(OC)cc2)cc1 [5'-O-dimethoxytrityl-N-benzoyldeoxyadenosine]
- Time to Complete Hydrolysis [1]: 30 s
- Depurination time ([5]; 0.5% toluenesulfonic acid/CHCl3:CH3OH (7:3), 0° C., 50% depurination): 8 h
- Detritylation time ([5]; 0.5% toluenesulfonic acid/CHCl3:CH3OH (7:3), 0° C.): 10 min
- Detritylation % ([5]; 0.5% toluenesulfonic acid/CHCl3:CH3OH (7:3), 0° C., 10 min): 100%
- Depurination % ([5]; 0.5% toluenesulfonic acid/CHCl3:CH3OH (7:3), 0° C., 8 hrs): 50%
- Depurination time ([5]; 2% toluenesulfonic acid/CHCl3:CH3OH (7:3), 18° C., 50% depurination): 0.083 h
- Detritylation time ([5]; 2% toluenesulfonic acid/CHCl3:CH3OH (7:3), 18° C.): < 1 min
- Depurination % ([5]; 2% toluenesulfonic acid/CHCl3:CH3OH (7:3), 18° C., 5 min): 50%
- Detritylation % ([5]; 2% toluenesulfonic acid/CHCl3:CH3OH (7:3), 18° C., <1 min): 100%
- Detritylation time ([5]; satd. ZnBr2/CH3NO2, 0° C.): 10 min
- Detritylation % ([5]; satd. ZnBr2/CH3NO2, 0° C., 10 min): 100%
- Depurination % ([5]; satd. ZnBr2/CH3NO2, 0° C., 21 hrs): < 5%
- Depurination time ([5]; satd. ZnBr2/CH3NO2, 0° C., <5% depurination): 21 h
- Depurination time ([5]; satd. ZnBr2/CH3NO2, 18° C., 50% depurination): 10 h
- Detritylation time ([5]; satd. ZnBr2/CH3NO2, 18° C.): < 1 min
- Depurination % ([5]; satd. ZnBr2/CH3NO2, 18° C., 10 hrs): 50%
- Detritylation % ([5]; satd. ZnBr2/CH3NO2, 18° C., <1 min): 100%

Compound: COc1ccc(C(OC[C@H]2O[C@@H](n3ccc(NC(=O)c4ccccc4)nc3=O)C[C@@H]2O)(c2ccccc2)c2ccc(OC)cc2)cc1 [5'-O-dimethoxytrityl-N-benzoyldeoxycytidine]
- Time to Complete Hydrolysis [1]: 30 s
- Degradation time [2]: 24 h
- Detritylation time [2]: < 1 min
- Detritylation % [2]: 100%

Compound: COc1ccccc1C(OC[C@H]1O[C@@H](n2cc(C)c(=O)[nH]c2=O)C[C@@H]1O)(c1ccccc1OC)c1cccc2ccccc12 [R1 = R2 = b; R3 = n, T]
- Time to Complete Hydrolysis [1]: 90 s
- t1/2 in H+ [1]: 45 s

Compound: COc1ccccc1C(OC[C@H]1O[C@@H](n2cnc3c(=O)[nH]c(NC(=O)C(C)C)nc32)C[C@@H]1O)(c1ccccc1)c1ccccc1OC [R1 = R2 = b; R3 = a, G]
- Time to Complete Hydrolysis [1]: 45 s
- t1/2 in H+ [1]: 15 s

Compound: COc1ccccc1C(O)(c1ccccc1)c1ccccc1OC [R1 = R2 = b; R3 = a]
- λ Maximum(s) [4]: 423 nanometers and 503 nanometers and 586 nanometers

Compound: Cc1cn([C@H]2C[C@H](O)[C@@H](COC(c3ccccc3)(c3ccccc3)c3ccccc3)O2)c(=O)[nH]c1=O [5'-Tritylthymidine]
- % Detritylation [3]: 50%
- Detritylation time [3]: 10 min

Compound: COc1ccccc1C(OC[C@H]1O[C@@H](n2ccc(NC(=O)c3ccccc3)nc2=O)C[C@@H]1O)(c1ccccc1OC)c1cccc2ccccc12 [R1 = R2 = b; R3 = n, C]
- Time to Complete Hydrolysis [1]: 120 s

The next lines start with the values.

- Time to Complete Hydrolysis [1]: > 600 s
- t1/2 in H+ [1]: 180 s
Compound: Cc1cn([C@H]2C[C@H](O)[C@@H](COC(c3ccccc3)(c3ccc(F)cc3)c3cccc4ccccc34)O2)c(=O)[nH]c1=O (stereo partly shown) [R1 = n; R2 = e; R3 = a, T]

- Time to Complete Hydrolysis [1]: 45 s
- t1/2 in H+ [1]: 30 s
Compound: COc1ccc(C(OC[C@H]2O[C@@H](n3cc(C)c(=O)[nH]c3=O)C[C@@H]2O)(c2ccccc2)c2cccc3ccccc23)cc1 (stereo partly shown) [R1 = n; R2 = c; R3 = a, T]

- λ Maximum(s) ([4]; listed as R1 = a, R2 = n, R3 = e): 577 nanometers and 421 nanometers
Compound: OC(c1ccccc1)(c1ccc(F)cc1)c1cccc2ccccc12 (stereo not shown) [R1 = a; R2 = e; R3 = n]

- λ Maximum(s) [4]: 452 nanometers
- Extinction Coefficient [4]: 42000 Molar^-1 cm^-1
Compound: Cc1ccc(C(O)(c2ccccc2)c2ccccc2)cc1 [R1 = h; R2 = R3 = a]

- Time to Complete Hydrolysis [1]: 240 s
- t1/2 in H+ [1]: 60 s
Compound: Cc1ccc(C(OC[C@H]2O[C@@H](n3cnc4c(NC(=O)c5ccccc5)ncnc43)C[C@@H]2O)(c2ccccc2)c2ccccc2)cc1 [R1 = h; R2 = R3 = a, A]
